Source: BigSolDB 2.1

CCc1ccc2c(c1)C(=O)c1ccccc1C2=O
solubility (mole fraction)
Conditions | 304.15 K | 309.15 K | 314.15 K | 319.15 K | 324.15 K | 329.15 K | 334.15 K | 339.15 K | 344.15 K
in 2-methyl-cyclohexyl acetate | 0.0752 | 0.0907 | 0.104 | 0.127 | 0.145 | 0.171 | 0.199 | 0.232 | 0.268
in 2-phenylethanol | 0.107 | 0.127 | 0.15 | 0.176 | 0.21 | 0.248 | 0.288 | 0.334 | 0.385
in DMAc | 0.0943 | 0.113 | 0.131 | 0.156 | 0.184 | 0.214 | 0.248 | 0.287 | 0.336
in DMF | 0.107 | 0.126 | 0.153 | 0.176 | 0.21 | 0.245 | 0.283 | 0.335 | 0.388
in acetophenone | 0.138 | 0.163 | 0.185 | 0.21 | 0.238 | 0.274 | 0.315 | 0.356 | 0.397
in diglyme | 0.165 | 0.191 | 0.216 | 0.244 | 0.275 | 0.314 | 0.357 | 0.401 | 0.444
in diisobutyl methanol | 0.0441 | 0.0536 | 0.0651 | 0.0787 | 0.0973 | 0.116 | 0.139 | 0.163 | 0.199
in dioctyl adipate | 0.0657 | 0.0773 | 0.0899 | 0.107 | 0.129 | 0.152 | 0.18 | 0.209 | 0.242
in mesitylene | 0.139 | 0.159 | 0.184 | 0.209 | 0.234 | 0.264 | 0.296 | 0.329 | 0.371
in styrene | 0.0944 | 0.112 | 0.132 | 0.153 | 0.182 | 0.212 | 0.248 | 0.285 | 0.335
in tetrabutyl urea | 0.0531 | 0.0644 | 0.0785 | 0.0947 | 0.116 | 0.139 | 0.17 | 0.197 | 0.24
in trioctyl phosphate | 0.0569 | 0.0678 | 0.0792 | 0.0959 | 0.114 | 0.135 | 0.155 | 0.182 | 0.22
